Reference: patent US20150239831A1, “INHIBITORS OF CENTRAL NERVOUS SYSTEM VASOACTIVE INHIBITORY PEPTIDE RECEPTOR 2” (The Trustees Of Columbia University In The City Of New York, priority 2012, published 2015)
“Also recorded” adds a separate entry of the source. Where two headings read alike, the source gives them in different places.

Target: T1, VIPR2 (Homo sapiens, UniProt P41587)
T1 sequence (P41587 24-438): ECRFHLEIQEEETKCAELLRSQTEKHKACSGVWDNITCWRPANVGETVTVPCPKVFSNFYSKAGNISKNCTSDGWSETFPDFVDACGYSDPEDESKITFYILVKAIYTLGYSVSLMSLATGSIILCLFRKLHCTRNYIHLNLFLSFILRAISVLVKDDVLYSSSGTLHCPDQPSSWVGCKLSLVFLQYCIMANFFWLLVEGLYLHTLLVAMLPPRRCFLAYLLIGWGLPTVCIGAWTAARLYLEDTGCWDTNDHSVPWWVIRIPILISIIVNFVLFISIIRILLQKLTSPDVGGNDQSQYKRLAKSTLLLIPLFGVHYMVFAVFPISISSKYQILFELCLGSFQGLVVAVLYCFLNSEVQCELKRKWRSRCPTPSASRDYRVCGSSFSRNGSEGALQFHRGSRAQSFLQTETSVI
Experiment: BRET-based VIPR2 activation assay (CAMYEL cAMP sensor, CHO cells, VIP background)
Assay type: cell-based
Details: for VIPR2 inhibition in BRET-based assay (in words): FIG. 1C, FIG. 5
Description: In such a system, a detector cell is used which expresses both the VIPR2 receptor and “CAMYEL,” a YFP-Epac-RLuc8 BRET sensor construct. This construct includes Epac1, a guanine nucleotide exchange factor activated by direct binding of cAMP, fused with an enhanced YFP and Renilla luciferase 8 (Rluc8) allowing BRET upon cAMP-induced conformational changes (Jiang et al., 2007, J Biol Chem. 282:10576-10584). In response to elevated cAMP levels, there is a conformational change in Epac and therefore a change in the proximity of the fused chromophores, Rluc8 and YFP, resulting in measurable energy transfer. Coexpression of this BRET construct with VIPR2, optionally tagged at the N-terminus with a signal peptide and FLAG epitope (SF-VIPR2), for example in HEK293 cells, allows for detection of a VIPR2-specific response to cAMP. BRET readout may be calculated by quantifying the ratio of the light emitted by the acceptor, YFP (λ=525 nm), over the emission from the donor, RLuc8 (λ=485 nm). The proximity of the donor and acceptor, and therefore the BRET ratio, decreases in the presence of cAMP. In non-limiting specific embodiments, a stable cell line may be generated for this assay using the Flp-In T-Rex system in HEK293 cells. This system allows site-specific single copy integration of the gene of interest and control of expression levels using the Tet-repressor site making receptor expression tetracycline-inducible. For example, a CAMYEL and VIPR2 expressing line may be induced with 0.01 μg/ml tetracycline, then, 24 hours later cells may be collected and distributed into 96-well plates. After treatment with candidate inhibitor compound, for example at 5, 1 and 0.5 μM concentrations, cells may be incubated with the light emitting luciferin, coelenterazine H, for 5 min and incubated for 5 min with VIP at increasing concentrations, for example ranging from […] to 10 μM. The fluorescence and luminescence may then be quantified, for example using a PHERAstar (BMG) plate reader. […] Alternatively, analogous experiments may be performed using human cells harvested from a patient having a VIPR2 copy number variation, for example (but not by way of limitation) pluripotent stem cells prepared from such a patient and then transfected with a CAMYEL construct.
Numerous cellular assays were developed that were able to detect VIP responses absent of interference from non-specific vasopressin receptors using this CHO based system. VIPR2 is a Gs coupled receptor. Activation of VIPR2 by VIP leads to both an elevation in cAMP signaling and the recruitment of β-arrestin. A variety of combinations can be transiently transfect into these CHO cells for the assessment of cellular responses to VIP. For the BRET readout CHO cell lines expressing an YFP-Epac-RLuc8 (CAMYEL) BRET sensor were used to detect changes in cAMP. This construct includes Epac1, a guanine nucleotide exchange factor activated by direct binding of cAMP, fused to an enhanced YFP and RLuc8 allowing a change in BRET upon cAMP-induced conformational changes. The key for medium to high throughput screening assays is the use of stable cell lines allowing the continuous assaying of multiple compounds with the ability to generate large numbers of cells for rapid use. In these lines VIPR2 was expressed as one of the stable cell lines assays. This was introduced into the CHO-Flp-IN to allow the generation of isogenic stable cell lines expressing high levels of VIPR2 under control of the CMV promoter. This has been introduced into this line together with the CAMYEL construct previously described. This allows for detection of VIPR2-specific responses to cAMP. EYFP fluorescence and RLuc8 luminescence is quantified in the presence of 5 μM light-emitting luciferin, coelenterazine H, using a PHERAstar (BMG) plate reader. BRET is calculated by quantifying the ratio of the light emitted by the acceptor, YFP (λ=525 nm), over the emission from the donor, RLuc8 (λ=485 nm).
3. […]

[1] = Table 2, read-out: BRET results (IC50)

Compound	IC50 (Table 1, read-out: IC50)	IC50 [1]	VIPR2 inhibition in BRET-based assay (in words)
O=C(N[C@H]1c2ccccc2C[C@H]1O)[C@H](Cc1ccccc1)C[C@H](O)CNS(=O)(=O)c1ccc(C(F)(F)F)cc1 [F]		2340 nM	greater activity than Compound 1; also recorded: greater effect on V IPR2 inhibition than Compound 1
CC(C)c1ccc(S(=O)(=O)NC[C@@H](O)C[C@@H](Cc2ccccc2)C(=O)N[C@H]2c3ccccc3C[C@H]2O)cc1 [Compound A10]		3440 nM	
N#Cc1ccc(S(=O)(=O)NC[C@@H](O)C[C@@H](Cc2ccccc2)C(=O)N[C@H]2c3ccccc3C[C@H]2O)cc1 [C]	1330 nM	1330 nM	
Cc1ccc(S(=O)(=O)NC[C@@H](O)C[C@@H](Cc2ccccc2)C(=O)N[C@H]2c3ccccc3C[C@H]2O)cc1 [I]	1180 nM	1980 nM	

The next molecules have a lower IC50 [1] than those just listed; values first:

IC50 (Table 1, read-out: IC50)	IC50 [1]	Compound	VIPR2 inhibition in BRET-based assay (in words)
426 nM	426 nM	CC(=O)c1ccc(S(=O)(=O)NC[C@@H](O)C[C@@H](Cc2ccccc2)C(=O)N[C@H]2c3ccccc3C[C@H]2O)cc1 [K]	significantly improved activity as an antagonist at VIPR2
1020 nM	1020 nM	COc1ccc(S(=O)(=O)NC[C@@H](O)C[C@@H](Cc2ccccc2)C(=O)N[C@H]2c3ccccc3C[C@H]2O)cc1 [E]	
